Test results as given in patent publication US7432365B1, “DNA molecules encoding beta clamp proteins of gram positive bacteria” (priority 1998, dated 2008).

How the values were obtained:
[1] = biological target: T1, PolC·τδδ′, β (Streptococcus pyogenes, UniProt P0C0B7); assay: Inhibition of synthesis on SSB coated primed M13mp18 ssDNA by TMAU; assay type: biochemical, S. pyogenes; details: 100 μM TMAU, 2% DMSO, 1 min
T1 construct: made in house; host or cells: E. coli BL21(DE3) RecA-, pET11a (β: pET16b)
Description: (§1) To test DnaE for function with τδδ′ and β, replication reactions contained 70 ng (25 fmol) of 30-mer singly primed M13 mp18 ssDNA, 0.82 μg of S. pyogenes SSB, and 3.3 ng-300 ng of DnaE (25 fmol −2.3 pmol) in 23.5 μl of 20 mM Tris-HCl (pH 7.5), 4% glycerol, 0.1 mM EDTA, 5 mM dithiothreitol (DTT), 40 μg/ml BSA, 2 mM ATP, 8 mM MgCl2, and 60 μM each of dGTP and dCTP. When present, reactions included 43.3 ng of β and 10 ng of τδδ′. Reactions were preincubated for 3 min at 37° C., and then NaCl was added to 40 mM followed by another 2 min at 37° C. DNA synthesis was initiated upon addition of 1.5 μl of 1.5 mM dATP, 0.5 mM [α^32P]-dTTP (specific activity 2,000-4,000 cpm/pmol). Aliquots of 25 μl were removed at the indicated times and quenched with an equal volume (25 μl) of 1% SDS, 40 mM EDTA. One-half of the quenched reaction was analyzed for total deoxynucleotide incorporation using DE81 filter paper and the other half was analyzed on a 0.8% neutral agarose gel. The effect of TMAU was also examined, in which 100 μM TMAU in DMSO (2% DMSO final concentration) was present. In this case, replication was allowed to proceed for 1 min before being quenched with […] of 1% SDS, 40 mM EDTA.
(§2) Gram positive PolC is known to be inhibited by the antibiotic hydroxyphenylaza-uracil (“HPUra”) and its derivatives. In FIG. 21F, the PolC·τδδ′, β and DnaE were tested for inhibition of synthesis on SSB coated primed M13mp18 ssDNA by an HPUra derivative, trimethylanilino-uracil (“TMAU”).

[2] = tested on: DnaE polymerase; assay: as above; assay type: biochemical, S. pyogenes
Description: as §1, §2

[3] = biological target: Gram positive PolC (Bacillus subtilis, UniProt P13267); details: known from the literature; cited from earlier work
Chain of Gram positive PolC (P13267 whole entry): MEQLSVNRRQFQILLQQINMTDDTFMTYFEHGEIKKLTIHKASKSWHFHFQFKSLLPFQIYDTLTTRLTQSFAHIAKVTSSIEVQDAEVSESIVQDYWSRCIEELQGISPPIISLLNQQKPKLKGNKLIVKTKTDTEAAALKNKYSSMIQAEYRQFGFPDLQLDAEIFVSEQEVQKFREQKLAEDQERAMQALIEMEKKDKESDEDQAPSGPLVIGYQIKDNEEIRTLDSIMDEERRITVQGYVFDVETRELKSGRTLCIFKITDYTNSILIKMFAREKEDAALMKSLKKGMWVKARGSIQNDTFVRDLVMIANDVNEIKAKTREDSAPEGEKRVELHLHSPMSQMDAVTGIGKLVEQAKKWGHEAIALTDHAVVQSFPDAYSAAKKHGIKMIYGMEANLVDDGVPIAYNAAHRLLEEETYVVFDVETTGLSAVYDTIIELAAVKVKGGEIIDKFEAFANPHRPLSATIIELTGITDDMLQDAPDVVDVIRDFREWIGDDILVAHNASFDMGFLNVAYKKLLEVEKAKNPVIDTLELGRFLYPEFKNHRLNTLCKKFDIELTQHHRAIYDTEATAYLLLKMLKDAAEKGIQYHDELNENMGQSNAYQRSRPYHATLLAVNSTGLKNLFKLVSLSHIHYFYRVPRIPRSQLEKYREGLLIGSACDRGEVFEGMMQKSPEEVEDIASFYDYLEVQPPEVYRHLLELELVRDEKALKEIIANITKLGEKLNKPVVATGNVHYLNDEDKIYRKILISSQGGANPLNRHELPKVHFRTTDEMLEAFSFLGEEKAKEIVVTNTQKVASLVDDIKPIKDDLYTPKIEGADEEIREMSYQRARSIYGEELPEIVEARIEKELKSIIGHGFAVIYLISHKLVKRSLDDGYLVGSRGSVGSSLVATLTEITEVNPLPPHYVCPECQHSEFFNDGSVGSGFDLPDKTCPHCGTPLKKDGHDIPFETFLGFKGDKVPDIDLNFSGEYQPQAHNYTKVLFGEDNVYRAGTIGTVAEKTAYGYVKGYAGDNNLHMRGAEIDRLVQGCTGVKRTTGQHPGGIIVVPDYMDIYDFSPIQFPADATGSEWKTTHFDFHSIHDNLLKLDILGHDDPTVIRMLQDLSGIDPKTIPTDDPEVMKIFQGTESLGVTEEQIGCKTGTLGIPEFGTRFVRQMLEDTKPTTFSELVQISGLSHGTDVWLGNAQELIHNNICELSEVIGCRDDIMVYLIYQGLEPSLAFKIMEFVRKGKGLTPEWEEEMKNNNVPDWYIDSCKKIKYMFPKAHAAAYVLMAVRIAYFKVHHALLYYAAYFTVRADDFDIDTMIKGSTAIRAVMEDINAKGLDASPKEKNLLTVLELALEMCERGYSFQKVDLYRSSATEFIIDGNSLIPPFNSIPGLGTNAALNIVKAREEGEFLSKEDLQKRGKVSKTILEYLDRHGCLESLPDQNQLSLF

[4] = biological target: E. coli Pol III core (Escherichia coli, UniProt P10443); details: linear polydA-oligodT template
Chain of E. coli Pol III core (P10443 whole entry): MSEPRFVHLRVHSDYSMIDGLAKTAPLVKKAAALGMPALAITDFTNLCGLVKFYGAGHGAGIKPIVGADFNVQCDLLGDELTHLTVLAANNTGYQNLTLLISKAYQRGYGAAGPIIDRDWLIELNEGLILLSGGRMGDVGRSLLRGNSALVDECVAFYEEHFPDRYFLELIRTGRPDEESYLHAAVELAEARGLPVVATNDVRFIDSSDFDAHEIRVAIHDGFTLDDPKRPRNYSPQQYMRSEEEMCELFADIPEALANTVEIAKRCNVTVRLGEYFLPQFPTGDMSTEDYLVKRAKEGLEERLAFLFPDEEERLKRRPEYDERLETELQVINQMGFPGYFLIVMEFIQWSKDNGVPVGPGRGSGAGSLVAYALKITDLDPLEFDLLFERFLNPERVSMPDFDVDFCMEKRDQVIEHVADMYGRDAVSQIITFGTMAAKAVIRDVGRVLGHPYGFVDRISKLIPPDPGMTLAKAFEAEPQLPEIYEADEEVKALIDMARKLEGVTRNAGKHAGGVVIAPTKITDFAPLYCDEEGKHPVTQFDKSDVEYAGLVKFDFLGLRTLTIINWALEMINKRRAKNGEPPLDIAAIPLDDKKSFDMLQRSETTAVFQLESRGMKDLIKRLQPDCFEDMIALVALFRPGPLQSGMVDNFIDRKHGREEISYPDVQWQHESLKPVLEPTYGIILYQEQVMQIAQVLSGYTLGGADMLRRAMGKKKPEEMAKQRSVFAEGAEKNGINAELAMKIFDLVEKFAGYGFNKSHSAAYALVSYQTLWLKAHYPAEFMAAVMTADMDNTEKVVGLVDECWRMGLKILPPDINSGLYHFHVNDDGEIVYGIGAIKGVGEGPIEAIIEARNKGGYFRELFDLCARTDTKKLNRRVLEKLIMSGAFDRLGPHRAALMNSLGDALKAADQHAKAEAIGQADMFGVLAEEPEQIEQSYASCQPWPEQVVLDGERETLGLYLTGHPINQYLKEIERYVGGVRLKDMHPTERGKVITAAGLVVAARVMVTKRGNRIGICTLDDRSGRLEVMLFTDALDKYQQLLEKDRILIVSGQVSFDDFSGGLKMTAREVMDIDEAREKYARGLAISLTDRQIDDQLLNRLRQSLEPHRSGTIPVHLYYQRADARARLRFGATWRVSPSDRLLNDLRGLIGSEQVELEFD
Chain of E. coli Pol III core (P03007 whole entry, further chain): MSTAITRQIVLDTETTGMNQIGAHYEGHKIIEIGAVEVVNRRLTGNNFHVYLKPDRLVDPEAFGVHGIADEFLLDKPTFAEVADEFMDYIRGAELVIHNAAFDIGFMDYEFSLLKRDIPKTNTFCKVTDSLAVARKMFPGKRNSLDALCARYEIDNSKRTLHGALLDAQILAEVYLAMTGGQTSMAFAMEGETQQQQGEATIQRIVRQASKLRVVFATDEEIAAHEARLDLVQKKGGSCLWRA
Chain of E. coli Pol III core (P0ABS8 whole entry, further chain): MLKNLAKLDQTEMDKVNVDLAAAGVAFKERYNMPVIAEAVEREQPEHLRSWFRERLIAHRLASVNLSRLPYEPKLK
Excerpt: DNA synthesis was quantitated using DE81 paper as described in Rowen et al., “Primase, the DnaG Protein of Escherichia coli. An Enzyme Which Starts DNA Chains,” J. Biol. Chem., 253:758-764 (1979), which is hereby incorporated by reference.

[5] = biological target: T2, S. aureus Pol III-L (Staphylococcus aureus, UniProt P0C1P9); assay: PolydA-oligodT replication assay, stimulation by beta; assay type: biochemical; details: linear polydA-oligodT template
T2 construct: made in house; host or cells: E. coli BL21(DE3), pET11PolC (β: pET16b)
T2 sequence (P0C1P9 whole entry): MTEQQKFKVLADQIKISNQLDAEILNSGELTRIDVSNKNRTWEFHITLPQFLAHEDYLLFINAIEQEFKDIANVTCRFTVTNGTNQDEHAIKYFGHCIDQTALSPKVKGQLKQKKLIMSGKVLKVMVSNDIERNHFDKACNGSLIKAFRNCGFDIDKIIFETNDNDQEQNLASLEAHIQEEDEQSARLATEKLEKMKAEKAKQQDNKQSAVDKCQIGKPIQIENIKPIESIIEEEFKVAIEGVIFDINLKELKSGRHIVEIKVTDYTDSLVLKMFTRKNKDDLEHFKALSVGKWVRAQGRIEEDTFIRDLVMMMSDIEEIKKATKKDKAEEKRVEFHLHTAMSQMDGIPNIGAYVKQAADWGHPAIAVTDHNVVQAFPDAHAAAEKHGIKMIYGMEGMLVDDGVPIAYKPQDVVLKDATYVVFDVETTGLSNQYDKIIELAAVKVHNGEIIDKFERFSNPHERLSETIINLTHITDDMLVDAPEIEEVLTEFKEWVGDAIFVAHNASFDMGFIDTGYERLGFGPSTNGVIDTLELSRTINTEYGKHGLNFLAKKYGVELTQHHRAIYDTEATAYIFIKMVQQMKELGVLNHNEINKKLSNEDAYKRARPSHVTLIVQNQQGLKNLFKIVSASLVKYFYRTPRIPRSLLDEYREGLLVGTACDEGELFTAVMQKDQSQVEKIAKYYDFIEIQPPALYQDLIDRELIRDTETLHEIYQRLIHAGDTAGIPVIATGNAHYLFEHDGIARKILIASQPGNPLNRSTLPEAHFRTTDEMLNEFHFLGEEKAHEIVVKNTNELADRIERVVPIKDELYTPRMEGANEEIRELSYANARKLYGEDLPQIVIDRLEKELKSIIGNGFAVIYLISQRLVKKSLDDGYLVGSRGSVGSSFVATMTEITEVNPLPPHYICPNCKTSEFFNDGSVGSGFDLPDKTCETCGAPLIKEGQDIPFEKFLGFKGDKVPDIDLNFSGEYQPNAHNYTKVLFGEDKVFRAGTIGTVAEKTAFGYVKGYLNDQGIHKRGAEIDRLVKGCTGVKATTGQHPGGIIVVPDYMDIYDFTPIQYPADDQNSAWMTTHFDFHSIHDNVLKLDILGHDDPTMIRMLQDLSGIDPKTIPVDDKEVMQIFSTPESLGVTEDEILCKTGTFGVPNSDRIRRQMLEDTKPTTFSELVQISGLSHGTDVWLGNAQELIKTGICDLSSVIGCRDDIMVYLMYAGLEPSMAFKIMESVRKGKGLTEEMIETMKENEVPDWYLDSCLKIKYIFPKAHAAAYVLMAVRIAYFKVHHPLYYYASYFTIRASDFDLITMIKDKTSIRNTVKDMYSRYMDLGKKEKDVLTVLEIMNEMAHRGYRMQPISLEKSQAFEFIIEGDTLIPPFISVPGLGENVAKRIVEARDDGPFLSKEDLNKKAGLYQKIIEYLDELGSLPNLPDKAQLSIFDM
Description: PolydA-oligodT was prepared as follows. […] OligodT35 was synthesized by Oligos etc.

## O=c1cc(Nc2ccc3c(c2)CCC3)[nH]c(=O)[nH]1 [TMAU, trimethylanilino-uracil]
[1]
  Inhibition of synthesis (formation of RFII product): prevented from forming the RFII product
[2]; 100 μM TMAU, in the presence of τδδ′/β
  Inhibition of synthesis (formation of RFII product): not affected
[2]; TMAU, in the absence of τδδ′/β (not shown)
  Inhibition of synthesis (formation of RFII product): not affected

## O=c1cc(N=Nc2ccc(O)cc2)[nH]c(=O)[nH]1 [HPUra, hydroxyphenylaza-uracil]
[3]
  Inhibition of Gram positive PolC: inhibited

B1: S. aureus beta: S. aureus beta subunit encoded by dnaN, SEQ. ID. No. 10, sliding clamp (protein)
chain: MMEFTIKRDYFITQLNDTLKAISPRTTLPILTGIKIDAKEHEVILTGSDSEISIEITIPKTVDGEDIVNISETGSVVLPGRFFVDIIKKLPGKDVKLSTNEQFQTLITSGHSEFNLSGLDPDQYPLLPQVSRDDAIQLSVKVLKNVIAQTNFAVSTSETRPVLTGVNWLIQENELICTATDSHRLAVRKLQLEDVSENKNVIIPGKALAELNKIMSDNEEDIDIFFASNQVLFKVGNVNFISRLLEGHYPDTTRLFPENYEIKLSIDNGEFYHAIDRASLLAREGGNNVIKLSTGDDVVELSSTSPEIGTVKEEVDANDVEGGSLKISFNSKYMMDALKAIDNDEVEVEFFGTMKPFILKPKGDDSVTQLILPIRTY
modifications: left off: small tags and cut ends
notes: ID; No. 10, sliding clamp
[4]
  Stimulation of polymerase DNA synthesis: about 5 fold
[5]
  Stimulation of polymerase DNA synthesis: 5-6 fold
